Assay results: BindingDB's records for doi:10.1111/j.1747-0285.2009.00905.x (Ariad Pharmaceuticals, 2010)

Experiments:
[1] = target: Proto-oncogene tyrosine-protein kinase Src (Homo sapiens, UniProt P12931); assay: In vitro kinase assay using Abl, Abl T315I or Src kinase.
[2] = target: Tyrosine-protein kinase ABL1 (Homo sapiens, UniProt P00519); assay: In Vitro Kinase Assay
[3] = target: Tyrosine-protein kinase ABL1 [T315I] (Homo sapiens, UniProt P00519, T315I); assay: In Vitro Kinase Assay

Chain of Proto-oncogene tyrosine-protein kinase Src (P12931 whole entry, looked up): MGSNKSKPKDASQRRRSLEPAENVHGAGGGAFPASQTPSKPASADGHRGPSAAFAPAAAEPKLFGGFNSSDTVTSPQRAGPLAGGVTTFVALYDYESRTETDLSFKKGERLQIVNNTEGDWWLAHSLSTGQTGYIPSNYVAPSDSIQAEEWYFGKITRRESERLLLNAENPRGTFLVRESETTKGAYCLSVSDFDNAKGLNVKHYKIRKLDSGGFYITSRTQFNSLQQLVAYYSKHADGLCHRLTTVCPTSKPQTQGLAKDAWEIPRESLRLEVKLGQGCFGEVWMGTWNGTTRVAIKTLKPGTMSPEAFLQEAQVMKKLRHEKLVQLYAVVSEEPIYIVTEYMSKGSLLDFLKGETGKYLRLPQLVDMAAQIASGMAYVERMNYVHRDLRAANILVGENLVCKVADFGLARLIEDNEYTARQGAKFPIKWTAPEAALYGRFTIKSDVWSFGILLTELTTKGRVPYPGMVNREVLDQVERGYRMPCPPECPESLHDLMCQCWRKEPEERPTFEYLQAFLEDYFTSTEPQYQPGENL

Row | IC50 [1] [nM] | IC50 [2] [nM] | IC50 [3] [nM] | SMILES
1 | < 0.5 | < 0.5 | > 10000 | Cc1ccc2[nH]ncc2c1/C=C/n1cnc2c(Nc3ccc(P(C)(C)=O)cc3)ncnc21
2 | 9.1 | – | 8900 | Cc1cccc(C)c1/C=C/n1cnc2c(Nc3ccc(P(C)(C)=O)cc3)ncnc21 [AP24149]
